This is an account of results in patent publication US6451971B1, “Physiologically active peptides” (Hisamitsu Pharmaceutical Co., Ltd., priority 1999, dated 2002).

Data set [1] has as its system K562 cell line derived from human chronic myelocytic leukemia. As to the kind of experiment: Cell adhesion inhibitory activity on Mn2+-treated anchorage-independent K562 cells on fibronectin-coated plates. It counts as cell-based. Particulars: for cell adhesion inhibitory activity (alanine scanning): K562 cells, biotinylated peptides of Table 1, conducted similarly to Example 2, FIG. 6. From the text:
(§1) (Danen et al., J. Biol. Chem., 270, 37, 21612, 1995; Mould et al., J. Biol. Chem., 270, 44, 26270, 1995.) This allows the cells to acquire adhesiveness to the extracellular matrices mediated by integrins. Such experimental induction of adhesion can be utilized as models for cell adhesion in the processes of metastatis of cancer cells and infiltration of inflammatory cells into tissues.
(§2) The K562 cell line derived from human chronic myelocytic leukemia, U937 cell line derived from human hystiocytic lymphoma and Ramos cell line derived from human Burkitt's lymphoma (all available from American Type Tissue Culture Collection-ATCC), which are one kind of anchorage-independent cells, were then treated with Mn^2+ to prepare a system, where the cell adhesion inhibitory activity of the peptides was evaluated.
Ninety six well plates were coated with fibronectin, which is one kind of extracellular matrix: fibronectin (FN) was prepared by the method of Fukai et al., J. Biol. Chem., 266, 8807, 1991. After cells were suspended to a cell density of 2×10^5/ml in a HEPES buffered physiological saline containing 0.1 mM Mn^2+, the cells (100 μl) were added to the plate and incubated at 37° C. under 5% CO2 for 60 min. Concurrently with addition of the cell suspension, the biotinylated peptide as synthesized in Example 1 (the amino acid sequence of the peptide portion is set forth in SEQ ID NO: 2) was added to the plate to give a final concentration of from 50 to 200 μg/ml. […] As a negative control, the group to which only biotin (unbound with the peptide) had been added was also evaluated.
FN coating was carried out by adding to each well, FN phosphate buffer (100 μl) that had been prepared to 10 μg/ml, by conducting incubation at 37° C. under 5% CO2 for 60 min and then by washing the well with phosphate buffer 3 times. After cells in each well were fixed with 5% formaldehyde (Wako Pure Chemical Industries, Ltd.), unbound cells were removed and five areas were randomly selected in each well to count the cells under a microscope.
The alanine scanning method is a technique that is used to identify amino acid sequence regions essential to physiological activities of proteins and peptides. (Puffer et al., J. Virol., 71, 6541, 1997; Wu and Hersh, J. Biol. Chem., 270, 49, 29111, 1995.) This method was then employed to analyze the present peptides. The peptides listed in Table 1, all of which were biotinylated (Example 1), were used in the experiments. For evaluation, the K562 cells derived from human chronic myelocytic leukemia, which was one kind of anchorage-independent cell, were used.
Evaluation of the cell adhesion inhibitory activity was conducted similarly to Example 2.

Data set [2] relates to melanoma cells. Particulars: Humphries, Science 233, 467, 1986; cited from earlier work.
For data set [3] the following is noted: Saiki et al., Jpn. J. Cancer Res., 84, 558, 1993; cited from earlier work.
The conditions of data set [4]: Saiki et al., Jpn. J. Cancer Res., 84, 558, 1993; cited from earlier work. The source holds these as a separate data set.
For data set [5], the system named is human melanoma A375SM cells. The data set is described as follows: Cell adhesion (spreading) inhibitory activity on anchorage-dependent A375SM cells. The data set is classed as cell-based. The conditions noted are these: fibronectin- or vitronectin-coated plates, biotinylated peptide 50 to 200 μg/ml, 60 min. Here is the method:
(§3) The human melanoma A375SM cells and human fibrosarcoma HT1080 (both available from ATCC), which are anchorage-dependent cells, were used in the evaluation. Cell adhesion inhibitory activity was evaluated according to the method of Fukai et al. as described in Biochem. Biophys. Res. Commun., 220, 394-398, 1996. The number of spread cells was counted as an index of the cell adhesion inhibitory activity.
(§4) A375SM cells or HT1080 cells were prepared to 2×10^5/ml in Dulbecco's Modified Eagle Medium (DMEM: GIBCO BRL) containing 0.1% Ovalbumin (Wako Pure Chemical Industries, Ltd.). This cell suspension (100 μl) was added to 96-well plates that had been coated with fibronectin or vitronectin (VN), which are one kind of extracellular matrix, and incubated at 37° C. under 5% CO2 for 60 min. Concurrently with addition of the cell suspension, the biotinylated peptide as synthesized in Example 1 was added to the plates to give a final concentration of from 50 to 200 μg/ml. […] FN and VN coatings were carried out by adding to each well, FN or VN phosphate buffered saline (100 μl) that had been prepared to 0.5 μg/ml, by conducting incubation at 37° C. under 5% CO2 for 60 min and then by washing the well with phosphate buffered saline 3 times. […]

Data set [6] has as its system human fibrosarcoma HT1080. As to the kind of experiment: Cell adhesion (spreading) inhibitory activity on anchorage-dependent HT1080 cells. The data set is classed as cell-based. Particulars: fibronectin- or vitronectin-coated plates, biotinylated peptide 50 to 200 μg/ml, 60 min. The procedure: as §3, §4
The test system of data set [7] is U937 cell line derived from human hystiocytic lymphoma. The data set is described as follows: Cell adhesion inhibitory activity on Mn2+-treated anchorage-independent U937 cells on fibronectin-coated plates. It counts as cell-based. Particulars: U937 cells in 0.1 mM Mn2+, biotinylated peptide 50 to 200 μg/ml, 60 min, adherent cells counted.
Text: as §1, §2
(§5) Ninety six well plates were coated with fibronectin, which is one kind of extracellular matrix: fibronectin (FN) was prepared by the method of Fukai et al., J. Biol. Chem., 266, 8807, 1991. After cells were suspended to a cell density of 2×10^5/ml in a HEPES buffered physiological saline containing 0.1 mM Mn^2+, the cells (100 μl) were added to the plate and incubated at 37° C. under 5% CO2 for 60 min. […] As a negative control, the group to which only biotin (unbound with the peptide) had been added was also evaluated. […]

In data set [8] the test system is Ramos cell line derived from human Burkitt's lymphoma. The data set is described as follows: Cell adhesion inhibitory activity on Mn2+-treated anchorage-independent Ramos cells on fibronectin-coated plates. It counts as cell-based. The conditions noted are these: Ramos cells in 0.1 mM Mn2+, biotinylated peptide 50 to 200 μg/ml, 60 min, adherent cells counted.
Text: as §1, §2, §5

“Also recorded” adds a separate entry of the source. Where no end group is shown, it is not given here.

Take “Gly Leu Lys Pro Gly Val Asp Tyr Thr Ile Thr Ala Tyr Ala Val (GLKPGVDYTITAYAV; also: biotinylated (place not given here)) [SEQ ID NO: 7]”: the “cell adhesion inhibitory activity (alanine scanning)” value (from here on “cell adhesion inhibitory activity”) in data set [1] is “equal to or greater than the cell adhesion inhibitory activity of the peptide set forth in SEQ ID NO: 2”. The same measure, in the same setting: the same measure for “Gly Leu Lys Pro Gly Val Asp Tyr Thr Ile Thr Val Ala Ala Val (GLKPGVDYTITVAAV; also: biotinylated (place not given here)) [SEQ ID NO: 8]”: “equal to or greater than the cell adhesion inhibitory activity of the peptide set forth in SEQ ID NO: 2”. Turning to “Gly Leu Lys Pro Gly Val Asp Tyr Thr Ile Thr Val Tyr Ala Ala (GLKPGVDYTITVYAA; also: biotinylated (place not given here)) [SEQ ID NO: 9]”, the “cell adhesion inhibitory activity” value in data set [1] is given as “equal to or greater than the cell adhesion inhibitory activity of the peptide set forth in SEQ ID NO: 2”. As to “Gly Leu Lys Pro Gly Val Asp Ala Thr Ile Thr Val Tyr Ala Val (GLKPGVDATITVYAV; also: biotinylated (place not given here)) [SEQ ID NO: 3]”, the “cell adhesion inhibitory activity” value in data set [1] is “equal to or greater than the cell adhesion inhibitory activity of the peptide set forth in SEQ ID NO: 2; also recorded: much greater cell adhesion inhibitory activity compared to the peptide set forth in SEQ ID NO: 2”; in data set [1] (listed as SEQ NO: 3) it was “stronger cell adhesion inhibitory activity than did SEQ NO: 2”. For GRGDS [GRGDS peptide], the “inhibition of experimental metastasis of melanoma cells to the lung” value in data set [2] is reported as “inhibits the experimental metastasis of melanoma cells to the lung”. Moreover, the “rate of clearance from the circulation following administration” value in data set [3] was “fast”. In data set [4], the decomposition by enzyme result is “liable to be decomposed by enzyme”. Consider “SEQ ID NO: 10: known peptide possessing cell adhesion inhibitory activity (Japanese Unexamined Patent Application Hei 10-147600); sequence not printed in the text (TEATIYGLEPGTEYTIYVIAL) [reference compound]”, for which the “cell adhesion inhibitory action (number of spread cells)” value in data set [5] and in data set [6] was “had a cell adhesion inhibitory action; also recorded: possesses a cell spreading inhibitory action” in each case. For the substance “Gly Leu Lys Pro Gly Val Asp Tyr Thr Ile Thr Val Tyr Ala Val (GLKPGVDYTITVYAV; also: biotinylated (place not given here)) [SEQ ID NO: 2]”, the “cell adhesion inhibitory effect” value in data set [1] (K562 cells in 0.1 mM Mn2+, fibronectin-coated plates, biotinylated peptide 50 to 200 μg/ml, 60 min, adherent cells counted) is “nearly equal to the activity of a known cell adhesion inhibitory peptide”; in data set [7] it was “nearly equal to the activity of the known cell adhesion inhibitory peptide”; in data set [8], “nearly equal to the activity of the known cell adhesion inhibitory peptide”. Also, the “cell adhesion inhibitory activity” value in data set [1] is “cell adhesion inhibitory activity was noted”. Moreover, the “cell adhesion inhibitory action (number of spread cells)” value in data set [5] and in data set [6] was “exhibits no such action at all” throughout. Turning to “Gly Leu Lys Pro Gly Val Asp Tyr Thr Ala Thr Val Tyr Ala Val (GLKPGVDYTATVYAV; also: biotinylated (place not given here)) [SEQ ID NO: 5]”, in data set [1], the “cell adhesion inhibitory activity” value is reported as “cell adhesion inhibitory activity was lost”. Same read-out and setting: in the case of “Gly Leu Lys Pro Gly Val Asp Tyr Ala Ile Thr Val Tyr Ala Val (GLKPGVDYAITVYAV; also: biotinylated (place not given here)) [SEQ ID NO: 4]” it was “cell adhesion inhibitory activity was lost”; in that of “Gly Leu Lys Pro Gly Val Asp Tyr Thr Ile Ala Val Tyr Ala Val (GLKPGVDYTIAVYAV; also: biotinylated (place not given here)) [SEQ ID NO: 6]”, “cell adhesion inhibitory activity was lost”.
